Test results from patent publication US8008291B2 (Mimetica Pty Ltd, priority 2008, dated 2011).

Target: T1, human MC5R (hMC5R) (Homo sapiens, UniProt P33032)
T1 construct: purchased Perkin Elmer RBXMC5M400UA
Test: Human MC5R radioligand binding assay (membranes, [125I] NDP-MSH displacement)
Conditions: hMC5R binding; tested as trifluoroacetate or hydrochloride salts, or free bases; read-out: MC5R radioligand IC50
Protocol: Assessments of compound binding to human MC5R (hMC5R) ) by displacement of an ^125I-labeled NDP-MSH receptor ligand peptide were performed essentially as described in the data sheets produced by Perkin Elmer to accompany their frozen hMC5R membranes (Perkin Elmer catalog number RBXMC5M400UA).
[^125I] NDP-MSH: radiolabeled in house and purified by HPLC:
• Na^125I (0.5 mCi, 17.4 Ci/mg) was added to 50 μL sodium phosphate (50 mM, pH7.4) in an eppendorf tube precoated with IODOGEN. After incubation for 10 mins the phosphate buffer containing the iodine was added to NDP-MSH (10 ul at 1 mg/mL) in a separate eppendorf tube. This was incubated for a further 10 mins. The iodinated NDP-MSH was purified by HPLC on a Zorbax SB 300 column using solvent A: 0.05% TFA and solvent B: 90% acetonitrile 0.045% TFA with a linear gradient, 0-67% B over 60 mins. […] Resuspended membranes were kept on ice until they were added to the wells of the plate. Binding Protocol for 400 microassays per vial: • Assays were performed in 96 well polypropylene plates. […] This was incubated for 1 hr at 37° C.

T1 sequence (P33032 whole entry): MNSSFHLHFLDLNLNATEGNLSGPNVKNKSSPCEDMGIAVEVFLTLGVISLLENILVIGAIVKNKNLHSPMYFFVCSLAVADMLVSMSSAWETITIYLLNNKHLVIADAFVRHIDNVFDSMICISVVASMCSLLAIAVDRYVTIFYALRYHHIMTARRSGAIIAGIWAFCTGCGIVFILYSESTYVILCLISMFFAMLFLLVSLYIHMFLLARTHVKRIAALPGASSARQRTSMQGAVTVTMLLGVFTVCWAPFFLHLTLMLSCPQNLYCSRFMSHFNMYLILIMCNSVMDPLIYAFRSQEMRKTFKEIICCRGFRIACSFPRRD

SMILES | IC50
CCC(CC)CN1CC[C@@H](CNC(=O)c2ccc3ccccc3c2)N[C@@H](CCCNC(=N)N)C1=O [Compound 297, N-(((3S,5S)-1-(2-ethylbutyl)-3-(3-guanidinopropyl)-2-oxo-1,4-diazepan-5-yl)methyl)-2-naphthamide] | < 1 µM
Cc1cc(F)cc(CN2CC[C@@H](CNC(=O)c3ccc4ccccc4c3)N[C@@H](CCCN)C2=O)c1 [Compound 321, N-(((3S,5S)-3-(3-aminopropyl)-1-(3-fluoro-5-methylbenzyl)-2-oxo-1,4-diazepan-5-yl)methyl)-2-naphthamide] | < 10 µM
N=C(N)NCCC[C@@H]1N[C@H](CNC(=O)c2ccc3ccccc3c2)CCN(Cc2cc(Cl)cc(Cl)c2)C1=O [Compound 14, N-(((3S,5S)-1-(3,5-dichlorobenzyl)-3-(3-guanidinopropyl)-2-oxo-1,4-diazepan-5-yl)methyl)-2-naphthamide] | < 0.1 µM
C=C(C)C(CC)CN1CC[C@@H](CNC(=O)c2ccc(Cl)c(Cl)c2)N[C@@H](CCN)C1=O (stereo partly drawn) [Compound 475, N-(((3S,5S)-3-(2-aminoethyl)-1-(2-ethyl-3-methylbut-3-enyl)-2-oxo-1,4-diazepan-5-yl)methyl)-3,4-dichlorobenzamide] | < 10 µM
O=C(NC[C@@H]1CCN(CC(c2ccccc2)c2ccccc2)C(=O)[C@H](CCCNC2CCC2)N1)c1ccc2ccccc2c1 [Compound 247, N-(((3S,5S)-3-(3-(cyclobutylamino)propyl)-1-(2,2-diphenylethyl)-2-oxo-1,4-diazepan-5-yl)methyl)-2-naphthamide] | < 0.1 µM
CC(C)[C@@H](CN1CC[C@@H](CNC(=O)c2ccc3ccccc3c2)N[C@@H](CCN2CCCCC2)C1=O)c1ccccc1 [Compound 394, N-(((3S,5S)-1-((R)-3-methyl-2-phenylbutyl)-2-oxo-3-(2-(piperidin-1-yl)ethyl)-1,4-diazepan-5-yl)methyl)-2-naphthamide] | < 1 µM
CCC(CC)CN1CC[C@@H](CNC(=O)c2ccc3cc(Br)ccc3c2)N[C@@H](CCN)C1=O [Compound 371, N-(((3S,5S)-3-(2-aminoethyl)-1-(2-ethylbutyl)-2-oxo-1,4-diazepan-5-yl)methyl)-6-bromo-2-naphthamide] | < 1 µM
CC[C@H](CN1CC[C@@H](CNC(=O)c2ccc(Cl)c(Cl)c2)N[C@@H](CCN2C(=O)CC(C)(C)C2=O)C1=O)c1ccccc1 [Compound 492, 3,4-dichloro-N-(((3S,5S)-3-(2-(3,3-dimethyl-2,5-dioxopyrrolidin-1-yl)ethyl)-2-oxo-1-((S)-2-phenylbutyl)-1,4-diazepan-5-yl)methyl)benzamide] | < 10 µM
CC[C@H](CN1CC[C@@H](CN(Cc2ccc(Cl)c(Cl)c2)C(C)=O)N[C@@H](CCN2CCCCC2)C1=O)c1ccccc1 [Compound 519] | < 10 µM
O=C(NC[C@@H]1CCN(CC(c2ccccc2)c2ccccc2)C(=O)[C@H](CCN2CCOCC2)N1)c1ccc2cc(Cl)ccc2c1 [Compound 514, 6-chloro-N-(((3S,5S)-1-(2,2-diphenylethyl)-3-(2-morpholinoethyl)-2-oxo-1,4-diazepan-5-yl)methyl)-2-naphthamide] | < 0.1 µM
N=C(N)NCCC[C@@H]1N[C@H](CNC(=O)c2ccc3ccccc3c2)CCN(C[C@@H](NC(=O)C2CCCCC2)c2ccccc2)C1=O [Compound 270, N-(((3S,5S)-1-((S)-2-(cyclohexanecarboxamido)-2-phenylethyl)-3-(3-guanidinopropyl)-2-oxo-1,4-diazepan-5-yl)methyl)-2-naphthamide] | < 10 µM
CC(C)[C@H](N)C(=O)NCC[C@@H]1N[C@H](CNC(=O)c2ccc(Cl)c(Cl)c2)CCN(Cc2ccc(Cl)cc2Cl)C1=O [Compound 506, N-(((3S,5S)-3-(2-((S)-2-amino-3-methylbutanamido)ethyl)-1-(2,4-dichlorobenzyl)-2-oxo-1,4-diazepan-5-yl)methyl)-3,4-dichlorobenzamide] | < 10 µM
C=C(C)C(CC)CN1CC[C@@H](CNC(=O)c2ccc3cc(Cl)ccc3c2)N[C@@H](CCN)C1=O (stereo partly drawn) [Compound 477, N-(((3S,5S)-3-(2-aminoethyl)-1-(2-ethyl-3-methylbut-3-enyl)-2-oxo-1,4-diazepan-5-yl)methyl)-6-chloro-2-naphthamide] | < 0.01 µM
CC[C@H](CN1CC[C@@H](CNC(=O)c2ccc3cc(Cl)ccc3c2)N[C@@H](CCNC(=N)NC(C)C)C1=O)c1ccccc1 [Compound 474, 6-chloro-N-(((3S,5S)-3-(2-(3-isopropylguanidino)ethyl)-2-oxo-1-((S)-2-phenylbutyl)-1,4-diazepan-5-yl)methyl)-2-naphthamide] | < 0.01 µM
NCCC[C@@H]1N[C@H](CNC(=O)c2ccc3ccccc3c2)CCN(Cc2ccc(Cl)cc2Cl)C1=O [Compound 319, N-(((3S,5S)-3-(3-aminopropyl)-1-(2,4-dichlorobenzyl)-2-oxo-1,4-diazepan-5-yl)methyl)-2-naphthamide] | < 1 µM
NCCC[C@@H]1N[C@H](CNC(=O)c2ccc3ccccc3c2)CCN(Cc2cc(Cl)ccc2Cl)C1=O [Compound 314, N-(((3S,5S)-3-(3-aminopropyl)-1-(2,5-dichlorobenzyl)-2-oxo-1,4-diazepan-5-yl)methyl)-2-naphthamide] | < 10 µM
O=C(/C=C/c1ccc(OC(F)(F)F)c(F)c1)NC[C@@H]1CCN(Cc2cc(Cl)cc(Cl)c2)C(=O)[C@H](CCN2CCCCC2)N1 [Compound 536, (E)-N-(((3S,5S)-1-(3,5-dichlorobenzyl)-2-oxo-3-(2-(piperidin-1-yl)ethyl)-1,4-diazepan-5-yl)methyl)-3-(3-fluoro-4-(trifluoromethoxy)phenyl)acrylamide] | < 0.1 µM
CCC(CN1CC[C@@H](CNC(=O)c2ccc3cc(Cl)ccc3c2)N[C@@H](CCN)C1=O)c1ccsc1 (stereo partly drawn) [Compound 509, N-(((3S,5S)-3-(2-aminoethyl)-2-oxo-1-(2-(thiophen-3-yl)butyl)-1,4-diazepan-5-yl)methyl)-6-chloro-2-naphthamide] | < 0.1 µM
CC[C@H](CN1CC[C@@H](CNC(=O)c2ccc(Cl)c(Cl)c2)N[C@@H](CCN(C)c2ccccc2)C1=O)c1ccccc1 [Compound 425, 3,4-dichloro-N-(((3S,5S)-3-(2-(methyl(phenyl)amino)ethyl)-2-oxo-1-((S)-2-phenylbutyl)-1,4-diazepan-5-yl)methyl)benzamide] | < 1 µM
CC[C@H](CN1CC[C@@H](CNC(=O)c2ccc(Cl)c(Cl)c2)N[C@@H](CCN2CCC(C(=O)O)CC2)C1=O)c1ccccc1 [Compound 451, 1-(2-((2S,7S)-7-((3,4-dichlorobenzamido)methyl)-3-oxo-4-((S)-2-phenylbutyl)-1,4-diazepan-2-yl)ethyl)piperidine-4-carboxylic acid] | < 0.1 µM
CC[C@H](CN1CC[C@@H](CNC(=O)c2ccc(Cl)c(Cl)c2)N[C@@H](CCNCc2ccccc2)C1=O)c1ccccc1 [Compound 429, N-(((3S,5S)-3-(2-(benzylamino)ethyl)-2-oxo-1-((S)-2-phenylbutyl)-1,4-diazepan-5-yl)methyl)-3,4-dichlorobenzamide] | < 0.1 µM
CC[C@H](CN1CC[C@@H](CNC(=O)c2ccc3ccccc3c2)N[C@@H](CCN)C1=O)c1ccccc1 [Compound 389, N-(((3S,5S)-3-(2-aminoethyl)-2-oxo-1-((S)-2-phenylbutyl)-1,4-diazepan-5-yl)methyl)-2-naphthamide] | < 1 µM
